{"source": "paper PMC8012596", "about": "“Hypouricemic agents reduce indoxyl sulfate excretion by inhibiting the renal transporters OAT1/3 and ABCG2” (Scientific Reports, 2021)", "key": {"intact rats [1]": {"system": "intact rats", "assay": "Effect of hypouricemic agents on pharmacokinetics of intravenously administered d4-IS in intact rats", "assay_type": "in vivo, Wistar rats", "set-up": "concentration or dose not given beside the values"}, "[2]": {"assay": "Plasma concentration of hypouricemic agents in intact and adenine-induced acute renal failure rats", "assay_type": "in vivo, Wistar rats", "details": "Supplemental Fig. 2; in words", "description": "Supplemental Fig. 1 Full-length blots/gels of renal expression of OAT1 (A/D), OAT3 (B/E), and ABCG2 (C/F) protein in intact and adenine-induced acute renal failure rats The chemiluminescence in blots and the proteins in gels were detected using ChemiDoc XRS Plus (Bio-Rad Laboratories, Inc.).\nSupplemental Fig. 2 Plasma concentration of hypouricemic agents in intact rats and adenine-induced acute renal failure rats\nPlasma drug concentration was measured using the same samples for measuring endogenous IS and d4-IS. Plasma samples were deproteinated with thrice volume of methanol and centrifuged at 1,000 × g for 10 min at 4°C. Drug concentrations were measured using the Alliance 2695 HPLC system (Waters Corporation. Milford, MA)."}, "intact rats [3]": {"system": "intact rats", "assay": "Effect of hypouricemic agents on endogenous IS pharmacokinetics in intact rats", "details": "for Effect on plasma concentration of endogenous IS: in words; for Kidney IS concentration compared with control: endogenous IS, at 4 h", "quoted_text": "Thirty minutes after drug administration, 0.3 mg/kg d^4-IS dissolved in saline was intravenously administered via the tail vein to all rats. Blood samples were obtained from the jugular vein at 0.083, 0.25, 0.5, 1, 2, and 4 h after d^4-IS administration using a heparinized needle and kept on ice, and then the kidney was isolated with the rats under isoflurane anesthesia. Plasma was obtained by centrifuging the blood samples at 1000 × g for 10 min at 4 °C. To prepare the kidney sample, 4-times volume of saline was added to the sample and homogenized.\nEndogenous IS and d^4-IS were determined in these samples as previously described with slightly modifications[10]. Briefly, the plasma and kidney homogenates were deproteinized using the internal standard containing methanol. These samples were measured using a liquid chromatography-tandem mass spectrometry (LC–MS/MS) systems consisting of a Nexera X2 and a Prominence instrument (Shimadzu Corp., Kyoto, Japan) coupled with QTRAP4500 (AB SCIEX, LLC., Framingham, MA). Pharmacokinetic parameters (AUC0-4 hr, C0, V0, T1/2, and CLtot) were analyzed using the Phoenix WinNonlin 6.4 software (Certara, L.P., Princeton, NJ). Some pharmacokinetic parameters were calculated using the following equations, in which \"IS\" means endogenous IS or d^4-IS. CLR, plasma = (urine IS concentration × urine volume) / AUC0-4 hr. CLR, kidney = (urine IS concentration × urine volume) / (kidney IS concentration at 4 h × 4). Kp = kidney IS concentration at 4 h / plasma IS concentration at 4 h."}, "[4]": {"system": "adenine-induced acute renal failure rats", "assay": "Effect of hypouricemic agents on pharmacokinetics of d4-IS in adenine-induced acute renal failure rats", "assay_type": "in vivo, Wistar rats", "details": "in words", "description": "Wistar rats were orally administered 600 mg/kg of adenine, once daily for 5 days. One week after the last administration, urine samples were collected for 4 h. Furthermore, blood samples were obtained from the jugular vein under the isoflurane anesthesia. […] Creatinine level in the plasma and urine was measured using the U-3900 spectrophotometer (Hitachi High-Tech Science Corp., Tokyo, Japan) with the L-type Wako Creatinine F kit (Wako Pure Chemical Industries, Ltd., Osaka, Japan). Creatinine clearance (CLCRE) was calculated using the following equation: CLCRE = [urine creatinine level (mg/dl) × urine volume (ml/min)] / plasma creatinine level (mg/dl) / body weight (kg). […] Four days later, the rats were selected based on the weight and serum creatinine level, and used in the study. In the intact group, the rats were used 4 days after the urine and blood sampling."}, "[5]": {"set-up": "method as in Pharmaceuticals and Medical Devices Agency", "details": "ref Pharmaceuticals and Medical Devices Agency, read-out: Cmax at clinical dose, cited from earlier work"}, "[6]": {"set-up": "method as in Pharmaceuticals and Medical Devices Agency", "details": "ref Pharmaceuticals and Medical Devices Agency; cited from earlier work"}, "[7]": {"set-up": "method as in PMID 29016645", "details": "in humans; cited from earlier work"}}, "note": "Counter-ions that a name gives are not always drawn. Like-named read-outs stand apart in the source and are kept apart here."}
{"smiles": "CCc1oc2ccccc2c1C(=O)c1cc(Br)c(O)c(Br)c1", "note": "[Benzbromarone]", "values": [{"measurement": "Decrease of CLR, plasma of d4-IS compared with control", "setting": "intact rats [1]", "result": 43, "unit": "%"}, {"measurement": "Decrease of CLtot of d4-IS compared with control", "setting": "intact rats [1]", "result": 34, "unit": "%"}, {"measurement": "Plasma concentrations of the drugs in adenine-induced acute renal failure rats versus intact rats", "setting": "[2]", "result": "not lower than those in intact rats"}, {"measurement": "Effect on plasma concentration of endogenous IS", "setting": "intact rats [3]", "result": "did not have any effects"}]}
{"smiles": "O=C(c1cc(Cl)c(O)c(Cl)c1)N1CS(=O)(=O)c2ccccc21", "note": "[Dotinurad]", "values": [{"measurement": "Effect on plasma concentration of d4-IS", "setting": "[4]", "result": "did not have any effect"}, {"measurement": "Cmax", "setting": "[5]; Cmax of q.d. administration, at a dose of 4 mg, for 1 weeks", "result": 1.2, "unit": "µM"}, {"measurement": "fu (unbound fraction rate)", "setting": "[6]", "result": 0.007}, {"measurement": "Effect on plasma concentration of endogenous IS", "setting": "intact rats [3]", "result": "did not have any effects"}]}
{"smiles": "CCCN(CCC)S(=O)(=O)c1ccc(C(=O)O)cc1", "note": "[Probenecid]", "values": [{"measurement": "Decrease of CLR, plasma of d4-IS compared with control", "setting": "intact rats [1]", "result": 78, "unit": "%"}, {"measurement": "Decrease of CLtot of d4-IS compared with control", "setting": "intact rats [1]", "result": 80, "unit": "%"}, {"measurement": "Effect on plasma concentration of d4-IS", "setting": "[4]", "result": "moderate but significant increase"}, {"measurement": "Plasma concentrations of the drugs in adenine-induced acute renal failure rats versus intact rats", "setting": "[2]", "result": "not lower than those in intact rats"}, {"measurement": "Cmax", "setting": "[5]; mean concentration of q.i.d. administration, at a dose of 2 g, for 4 weeks", "result": 79, "unit": "µM"}, {"measurement": "fu (unbound fraction rate)", "setting": "[6]", "result": 0.11}, {"measurement": "Decrease of CLR, plasma of endogenous IS compared with control", "setting": "intact rats [3]", "result": 73, "unit": "%"}, {"measurement": "Increase of AUC0-4 hr of endogenous IS compared with control", "setting": "intact rats [3]", "result": 244, "unit": "%"}, {"measurement": "Kidney IS concentration compared with control", "setting": "intact rats [3]", "result": 1.7, "unit": "times"}, {"measurement": "Effect on plasma concentration of endogenous IS", "setting": "intact rats [3]", "result": "significantly increased"}]}
{"smiles": "O=S(=O)(O)Oc1c[nH]c2ccccc12", "note": "[IS, Indoxyl sulfate]", "values": [{"measurement": "plasma protein binding ratio", "setting": "[7]", "result": 93, "unit": "%"}]}
{"smiles": "Cc1nc(-c2ccc(OCC(C)C)c(C#N)c2)sc1C(=O)O", "note": "[Febuxostat]", "values": [{"measurement": "Decrease of CLR, kidney of d4-IS compared with control", "setting": "intact rats [1]", "result": 94, "unit": "%"}, {"measurement": "Decrease of CLR, plasma of d4-IS compared with control", "setting": "intact rats [1]", "result": 35, "unit": "%"}, {"measurement": "Decrease of CLtot of d4-IS compared with control", "setting": "intact rats [1]", "result": 44, "unit": "%"}, {"measurement": "Plasma concentrations of the drugs in adenine-induced acute renal failure rats versus intact rats", "setting": "[2]", "result": "not lower than those in intact rats"}, {"measurement": "Decrease of CLR, kidney of endogenous IS compared with control", "setting": "intact rats [3]", "result": 93, "unit": "%"}, {"measurement": "Decrease of CLR, plasma of endogenous IS compared with control", "setting": "intact rats [3]", "result": 39, "unit": "%"}, {"measurement": "Increase of AUC0-4 hr of endogenous IS compared with control", "setting": "intact rats [3]", "result": 85, "unit": "%"}, {"measurement": "Kidney IS concentration compared with control", "setting": "intact rats [3]", "result": 15.1, "unit": "times"}, {"measurement": "Effect on plasma concentration of endogenous IS", "setting": "intact rats [3]", "result": "significantly increased"}]}
